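Five compound concentrations were applied to cells in 96-well plates for 48 hours; endpoints were derived by simple linear interpolation of the resulting dose-response curve. TGI: total growth inhibition.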

The values below come from PubChem BioAssay (NCI).

Common to all, as to experiment: growth of human tumour cells (NCI), 48 h
Assay [1] has as its system NCI/ADR-RES ovarian.
For assay [2], the system named is SF-539 CNS.
Assay [3] has as its system SNB-75 CNS.
Assay [4] relates to OVCAR-4 ovarian.
Assay [5] deals with MDA-MB-231 breast.
Assay [6] concerns KM12 colon.
Assay [7] has as its system TK-10 renal.
In assay [8] the test system is PC-3 prostate.
For assay [9], the system named is OVCAR-3 ovarian.
Assay [10] concerns OVCAR-5 ovarian.
In assay [11] the test system is MDA-N.
The test system of assay [12] is SK-OV-3 ovarian.

For `CC(C)(C)OC(=O)NC(Cc1ccc(OCc2ccccc2)cn1)C(N)=O` (centres undefined), the TGI in [1], in assay [2], in [3], in assay [4], in assay [5] and in [6] was above 100 µM throughout. Besides, the TGI in assay [7], in assay [8], in assay [9], in assay [10] and in assay [11] was above 100 µM each time.

For `Cc1cc(C)nc(NS(=O)(=O)c2ccc(Nc3nnc(/C=C/c4c(O)ccc5ccccc45)c(=O)n3N)cc2)n1`, the TGI in assay [1] is 58.3 µM; in [3] it was 55.9 µM; in assay [4], 85.2 µM; in [12], above 100 µM; in assay [9], 56 µM; in assay [10] it was 75.4 µM. This molecule had a TGI in assay [11] of 81.6 µM.

As to `COC(=O)/C=C/c1ccc2c(c1)[C@H](C(=O)OC)[C@@H](c1ccc(O)cc1)O2`, the TGI in [1] is above 100 µM; in assay [2], above 100 µM; in assay [4] it was above 100 µM; in assay [5], above 100 µM; in [6], 88.1 µM; in assay [7], above 100 µM. Also, the TGI was above 100 µM in assay [8]; above 100 µM in [12]; 28.2 µM in assay [9]; above 100 µM in [10]; 95.7 µM in assay [11].

For the molecule `C=C(C)CCN(C(=O)OC(C)(C)C)c1cc(C(C)C)co1`, the TGI in [1], in assay [2], in [4], in [5], in [6] and in [7] was above 100 µM each time. In addition, the TGI in [8] is 99.6 µM; in assay [12], above 100 µM; in [9] it was above 100 µM; in assay [10], above 100 µM; in [11], above 100 µM.

`COc1cccc(N2C(=O)C3c4[nH]c5ccc(C)cc5c4C4CCC(C)CC4C3C2=O)c1` (centres undefined): the TGI in [1], in assay [2], in assay [5], in assay [7], in assay [8] and in assay [12] was above 100 µM throughout. Moreover, the TGI in [9], in [10] and in assay [11] was above 100 µM throughout.

Take `COC(=O)C1Cc2c([nH]c3ccccc23)-c2[nH]c3ccccc3c2CC(NC(C)=O)C(=O)NCC(=O)NCC(=O)N1` (centres undefined): the TGI in assay [1], in assay [2], in assay [3], in [5], in [6] and in assay [7] was above 100 µM in each case. Besides, the TGI in assay [8], in assay [12], in assay [9], in assay [10] and in [11] was above 100 µM each time.

Consider `COc1ccc2oc(=O)c(-c3csc(-c4ccccc4)n3)cc2c1`, for which the TGI is 31.2 µM in [2]; 71.7 µM in [3]; 97.9 µM in assay [4]; above 100 µM in assay [5]; above 100 µM in assay [6]; 50.6 µM in assay [7]. Also, the TGI in assay [8] was above 100 µM; in assay [12], 38 µM; in [10], above 100 µM; in assay [11], above 100 µM.

Take `O=[N+]([O-])c1cc2ccc1OCc1cccc(n1)COc1ccc(cc1[N+](=O)[O-])C=NCCCCCCCCN=C2`: the TGI in [1], in assay [2], in [3], in assay [4], in assay [5] and in assay [6] was above 100 µM throughout. Also, the TGI in assay [7], in assay [8], in assay [9], in [10] and in assay [11] was above 100 µM throughout.

Turning to `Cc1ccc(/C=C2\CCCCCC2=O)cc1`, the TGI in assay [3], in [4], in assay [5], in assay [6], in assay [7] and in assay [8] was above 100 µM throughout. Moreover, the TGI in [12], in [9], in [10] and in [11] was above 100 µM each time.

With `CNC(=O)OCc1nc(N=[N+]=[N-])n(C)c1COC(=O)NC`, the TGI in assay [1], in assay [2], in assay [3], in assay [4], in [5] and in assay [6] was above 100 µM throughout. The TGI in [7], in [8], in assay [9], in [10] and in [11] was above 100 µM each time.

With `CC(CC(C)[C@H]1CCC2[C@H]3C(CC(=O)[C@@]21C)[C@@]1(C)CCC(O)C[C@H]1C[C@@H]3O)C(=O)O` (some centres undefined), the TGI in assay [1], in assay [2], in assay [3], in assay [4], in assay [5] and in assay [6] was above 100 µM throughout. Further, the TGI in assay [7], in [8], in [10] and in assay [11] was above 100 µM in each case.

Take `CC1(Cc2cc3c(cc2C2(c4ccc([N+](=O)[O-])cc4)OCCO2)OCO3)OCCO1`: the TGI in assay [1], in assay [2], in assay [4], in assay [5], in assay [6] and in assay [7] was above 100 µM each time. The TGI in assay [8], in assay [12], in assay [9], in [10] and in [11] was above 100 µM throughout.

As to `Brc1ccc(N=Nc2ccc3ccccc3n2)cc1`, the TGI in [1] was above 100 µM; in assay [2] it was 55.2 µM; in assay [3] it was 40.6 µM; in assay [6] it was above 100 µM; in [7], 56.6 µM; in assay [8] it was above 100 µM. The TGI was 49.6 µM in assay [12], above 100 µM in [10] and above 100 µM in [11].

For `Cc1ncc([N+](=O)[O-])n1CCNC(=O)Cn1ccnc1[N+](=O)[O-]`, the TGI in [1], in assay [2], in [3], in assay [5], in assay [6] and in assay [7] was above 100 µM throughout. Further, the TGI in assay [8], in assay [12], in assay [9], in assay [10] and in [11] was above 100 µM in each case.

For the molecule `CCN(CC)c1ccc2cc(-c3csc(C)n3)c(=O)oc2c1`, the TGI in [2] was above 100 µM; in assay [3], 9.42 µM; in [4] it was above 100 µM; in assay [5], above 100 µM; in [6], above 100 µM; in [7] it was above 100 µM. For the same molecule, the TGI in assay [8], in assay [12], in assay [10] and in [11] was above 100 µM each time.

On to `CC[C@H]1C=CCC[C@@]2(C[C@@H]3CC[C@H]4[C@@H](C(=O)OCCCCCCCCCCCCCCCC(=O)N(CCCNC(C)=O)C[C@H](CCNC(C)=O)OC(C)=O)[C@@]5(CCC[C@@H](C)O5)NC(=[N+]34)N2)O1`, for which the TGI was determined as 2.87 µM in assay [2]; 3.16 µM in assay [4]; 2.67 µM in [6]; 2.99 µM in assay [7]; 2.26 µM in assay [8]; 3.12 µM in assay [12]. Further, the TGI in [9] was 2.03 µM; in assay [10], 2.96 µM; in [11] it was 3.05 µM.

`CC1CN=C(NS(=O)(=O)c2cc(C(=O)Nc3ccccc3)c(Cl)cc2S)NN1` (centres undefined): the TGI in assay [1], in assay [2], in assay [4], in assay [5], in [6] and in assay [7] was above 100 µM throughout. Besides, the TGI is above 100 µM in [8]; above 100 µM in assay [12]; above 100 µM in assay [9]; above 100 µM in assay [10]; 71.5 µM in assay [11].

For `CC(C)N(C(=O)C12C3(C(=O)C(C)(C)C)C4C5(C#N)C3C1(C(=O)C(C)(C)C)C5C42C(=O)C(C)(C)C)C(C)C` (centres undefined), the TGI was above 100 µM in assay [1]; above 100 µM in assay [2]; 91 µM in assay [3]; above 100 µM in [4]; above 100 µM in assay [5]; above 100 µM in assay [6]. Besides, the TGI in [7], in assay [8], in assay [9], in [10] and in assay [11] was above 100 µM each time.

For the molecule `CC(=O)c1c2c(cc3c1CC1(C3)Cc3cc4c(c(C(C)=O)c3C1)CCCC4)CCCC2`, the TGI in assay [1], in assay [2], in [4], in assay [5], in assay [6] and in assay [7] was above 100 µM each time. Moreover, the TGI in assay [8], in assay [12], in assay [9], in [10] and in assay [11] was above 100 µM in each case.

`CC(C)(C)OC(=O)NC(Cc1ccc(OCc2ccccc2)cn1)C(=O)O` (centres undefined): the TGI in assay [1], in assay [2], in assay [4], in assay [5], in [6] and in assay [7] was above 100 µM throughout. For the same molecule, the TGI in assay [8], in assay [9], in [10] and in assay [11] was above 100 µM each time.

`COC(=O)/C=C1/OC(c2ccc(C)cc2C)=CC1=O`: the TGI in assay [1] stood at 42.3 µM; in assay [2], 33 µM; in assay [3], 29.4 µM; in [5], 27.5 µM; in assay [6], 31.8 µM; in [7], 31.3 µM. The TGI in [8] worked out at 34.9 µM; in assay [12], 33.1 µM; in [9], 60.1 µM; in assay [10], 31.7 µM; in [11], 36.4 µM.

With `O=C1/C(=C/c2ccc(OC(=O)c3ccc(Cl)cc3)cc2)CCC/C1=C\c1ccc(OC(=O)c2ccc(Cl)cc2)cc1`, the TGI is above 100 µM in assay [1]; above 100 µM in assay [2]; 60.8 µM in assay [3]; above 100 µM in [4]; above 100 µM in [5]; above 100 µM in assay [6]. In addition, the TGI in assay [7], in assay [8], in [9], in assay [10] and in assay [11] was above 100 µM in each case.

As for `CC(=O)c1sc2n(C)c(=O)c3ccccc3[n+]2c1C`, the TGI in assay [1], in assay [2], in [4], in assay [5], in assay [6] and in assay [7] was above 100 µM each time. The TGI in [8], in [12], in [9], in [10] and in assay [11] was above 100 µM each time.

Consider `COCCNC1CCC(=O)c2[nH]c3ccccc3c21` (centres undefined), for which the TGI in assay [1], in [2], in assay [3], in assay [4], in assay [5] and in assay [6] was above 100 µM each time. The TGI in [7], in assay [8], in [9], in assay [10] and in [11] was above 100 µM in each case.

On to `C=CC[C@@]12CCC(=O)C=C1CCCC2=O`, for which the TGI in [1], in assay [2], in assay [4], in assay [5], in [7] and in assay [8] was above 100 µM throughout. In addition, the TGI in assay [12], in assay [9], in assay [10] and in assay [11] was above 100 µM throughout.
